Experimental data reported in US10323036B2 (Nimbus Lakshmi, Inc., priority 2016, dated 2019).
Read-outs that look alike come from different tables or passages of the source.

Biological target: human TYK2 (JH2domain-pseudokinase) (Homo sapiens (Human), UniProt P29597)
Test: TYK2 JH2 Domain Binding Assay (KINOMEscan)
Settings: read-out: JH2 Kd

Chain of human TYK2 (JH2domain-pseudokinase) (P29597 556-888): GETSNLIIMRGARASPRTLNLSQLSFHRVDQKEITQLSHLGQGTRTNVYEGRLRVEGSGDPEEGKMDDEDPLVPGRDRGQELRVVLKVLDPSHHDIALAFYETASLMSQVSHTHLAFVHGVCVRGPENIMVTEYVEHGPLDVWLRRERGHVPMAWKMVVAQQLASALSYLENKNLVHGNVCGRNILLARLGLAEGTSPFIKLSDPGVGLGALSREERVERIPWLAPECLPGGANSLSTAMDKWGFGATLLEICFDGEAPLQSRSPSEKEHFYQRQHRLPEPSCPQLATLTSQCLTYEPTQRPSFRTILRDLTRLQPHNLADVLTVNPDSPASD

Structure (SMILES) | Kd (Table 4, JH2 binding assay) [nM] | Kd (Table 5, Tyk2 JH2 Domain Binding Assay) [nM]
COc1c(C#N)cccc1Nc1cc(Nc2ccc(C)cn2)nc2[nH]n(C)c(=O)c12 [Compound I-34] | > 10 | –
CN(c1ccccc1Nc1cc(Nc2cnc3c(n2)CCC3)nc2[nH]n(C)c(=O)c12)S(C)(=O)=O [Compound I-225, N-(2-((6-((6,7-dihydro-5H-cyclopenta[b]pyrazin-2-yl)amino)-2-methyl-3-oxo-2,3-dihydro-1H-pyrazolo[3,4-b]pyridin-4-yl)amino)phenyl)-N-methylmethanesulfonamide] | < 0.1 | –
COc1c(Nc2cc(NC(=O)C3CC3)nc3[nH]n(C)c(=O)c23)cccc1-c1nnnn1C [Compound I-52] | 1 to 10 | –
CN(c1cc(C2CCOCC2)ccc1Nc1cc(NC(=O)C2CC2)nc2[nH]n(C)c(=O)c12)S(C)(=O)=O [Compound I-234] | 0.1 to 0.5 | –
COc1c(Nc2cc(NC(=O)C3CC3)nc3[nH]n(C)c(=O)c23)ccc(F)c1F [Compound I-127, N-(4-((3,4-difluoro-2-methoxyphenyl)amino)-2-methyl-3-oxo-2,3-dihydro-1H-pyrazolo[3,4-b]pyridin-6-yl)cyclopropanecarboxamide] | > 10 | –
COc1c(Nc2cc(Nc3cc(C)c(F)cn3)nc3[nH]n(C)c(=O)c23)cccc1C(N)=O [Compound I-106] | 1 to 10 | –
COc1c(Nc2cc(Nc3cc(C)nc(C)n3)nc3[nH]n(C)c(=O)c23)cccc1-c1ncn(C)n1 [Compound I-22, 6-((2,6-dimethylpyrimidin-4-yl)amino)-4-((2-methoxy-3-(1-methyl-1H-1,2,4-triazol-3-yl)phenyl)amino)-2-methyl-1,2-dihydro-3H-pyrazolo[3,4-b]pyridin-3-one] | 0.5 to 1 | –
COc1c(Cl)cccc1Nc1cc(NC(=O)C2CC2)nc2[nH]n(C)c(=O)c12 [Compound I-49, N-(4-((3-chloro-2-methoxyphenyl)amino)-2-methyl-3-oxo-2,3-dihydro-1H-pyrazolo[3,4-b]pyridin-6-yl)cyclopropanecarboxamide] | 0.5 to 1 | –

The remaining lines, values ahead:

Kd (Table 4, JH2 binding assay) [nM] | Kd (Table 5, Tyk2 JH2 Domain Binding Assay) [nM] | Structure (SMILES)
0.1 to 0.5 | – | CN(c1ccccc1Nc1cc(Nc2cc3c(cn2)OCC3)nc2[nH]n(C)c(=O)c12)S(C)(=O)=O [Compound I-226, N-(2-((6-((2,3-dihydrofuro[2,3-c]pyridin-5-yl)amino)-2-methyl-3-oxo-2,3-dihydro-1H-pyrazolo[3,4-b]pyridin-4-yl)amino)phenyl)-N-methylmethanesulfonamide]
0.1 to 0.5 | – | Cn1[nH]c2nc(Nc3ccc(C#N)cn3)cc(Nc3ccccc3S(C)(=O)=O)c2c1=O [Compound I-139, 6-((2-methyl-4-((2-(methylsulfonyl)phenyl)amino)-3-oxo-2,3-dihydro-1H-pyrazolo[3,4-b]pyridin-6-yl)amino)nicotinonitrile]
0.5 to 1 | – | Cc1ccc(Nc2cc(Nc3ccc(Cl)cc3S(C)(=O)=O)c3c(=O)n(C)[nH]c3n2)nc1C(F)(F)F [Compound I-208, 4-((4-chloro-2-(methylsulfonyl)phenyl)amino)-2-methyl-6-((5-methyl-6-(trifluoromethyl)pyridin-2-yl)amino)-1,2-dihydro-3H-pyrazolo[3,4-b]pyridin-3-one]
0.5 to 1 | – | COc1c(F)cccc1Nc1cc(Nc2cnc(C(C)(C)OC)c(C#N)n2)nc2[nH]n(C)c(=O)c12 [Compound I-190, 6-((4-((3-fluoro-2-methoxyphenyl)amino)-2-methyl-3-oxo-2,3-dihydro-1H-pyrazolo[3,4-b]pyridin-6-yl)amino)-3-(2-methoxypropan-2-yl)pyrazine-2-carbonitrile]
0.1 to 0.5 | – | COc1c(F)cccc1Nc1cc(Nc2ccc(C)nn2)nc2[nH]n(C)c(=O)c12 [Compound I-75, 4-((3-fluoro-2-methoxyphenyl)amino)-2-methyl-6-((6-methylpyridazin-3-yl)amino)-1,2-dihydro-3H-pyrazolo[3,4-b]pyridin-3-one]
– | 10 to 100 | CCn1nc(-c2cccc(-c3nnn(C)n3)c2OC)c2cc(NC(=O)C3CC3)ncc21 [XVI-5, N-(1-ethyl-3-(2-methoxy-3-(2-methyl-2H-tetrazol-5-yl)phenyl)-1H-pyrazolo[3,4-c]pyridin-5-yl)cyclopropanecarboxamide]
